{
  "source": "paper PMC12120644",
  "about": "“Modulation of the Inflammatory Process through the Control of Cyclooxygenase Using Peptides Obtained from Lithobates Catesbeianus Identified by Molecular Docking” (ACS Omega, 2025)",
  "key": {"[1]": {"test_system": "IL-6", "assay": "IL-6 immunoassay (ELISA), LPS-stimulated macrophages", "type": "cell-based, murine", "conditions": "LPS 1 μg/mL for 4 h, 1 mM the only significant of 0.025, 0.05, 0.5, and 1 mM, ELISA 405 nm", "protocol": "Quantification of IL-6 was determined using the Murine Mini ABTS IL-6 ELISA kit (PeproTech, Cat No. 900-M50), according to the manufacturer’s instructions. The absorbance was measured at 405 nm, and IL-6 concentrations were quantified based on the IL-6 standard curve (0−4000 pg/mL).\n5 IL-6 concentration (pg/mL) in macrophages treated at 0.025, 0.05, 0.5, and 1.0 mM peptide 1 and exposure to 1 μg/mL LPS for 4 h. Ctrl-: Negative control (cells + DMEM); Ctrl+: Positive control 1 (cells + DMEM+ and LPS); P1 (cells + DMEM + peptide at different concentrations + LPS). Data (n = 3) are expressed as mean and standard error."}, "[2]": {"test_system": "total cyclooxygenase", "assay": "COX inhibition assay (total COX activity, LPS-stimulated RAW 264.7)", "type": "cell-based", "conditions": "RAW 264.7 stimulated with LPS 1 μg/mL for 4 h, peptide 1 mM, chemiluminescent enzymatic kit (Cayman), vs LPS control, t test P < 0.05", "protocol": "The in vitro total cyclooxygenase inhibition was evaluated using a chemiluminescent enzymatic kit (Cayman Chemical, MI), according to the manufacturer’s protocol. The RAW 264.7 cell line was purchased from the American Type Culture Collection (Rockville, MD) and routinely grown in DMEM supplemented with 10% fetal bovine serum (FBS). The cells were subcultured every 3 to 4 days at 1 × 10^8 cells/mL. The positive control group was exposed to lipopolysaccharide (LPS) at 1 μg/mL for 4 h to induce inflammation. Cells were collected and centrifuged at 600g for 10 min at 4 °C. The supernatant was carefully removed and cells were resuspended in 2 mL of DMEM, resulting in 1 × 10^8 cells/mL.\n4 Effect of SGHPGAMGPVGPR (P1), IGPAGSAGSR (P2), GPSGPAGARGDK (P3), and […] (P4) peptides on the total COX activity. The RAW 264.7 cells were subcultured at 1 × 10^8 cells/mL density and stimulated with LPS at 1 μg/mL for 4 h. Cells were collected by centrifugation at a speed of 2.000 rpm for 10 min at 4 °C and were resuspended in DMEM. After that, cells were treated with the peptides, and ELISA was performed. Significant by the t test (P < 0.05). CTRL: control (cells stimulated with LPS)."}},
  "note": "“Also recorded” adds a separate entry of the source. No end group written: not given here.",
  "data": [
    {"sequence": "SGHPGAMGPVGPR [Peptide P1]", "values": [
      {"measurement": "IL-6 levels (in words)", "setting": "[1]; n = 3", "value": "downregulating IL-6 expression; also recorded: significantly downregulated IL-6 levels in a dose-dependent manner"},
      {"measurement": "IL-6 levels (in words)", "setting": "[1]; n = 3, listed as peptide 1", "value": "best results in decreasing the cells’ total COX and IL-6 cytokines"},
      {"measurement": "total COX activity (in words)", "setting": "[2]", "value": "effectively inhibiting total COX activity; also recorded: only peptide P1 exhibited an inhibitory capacity on the total COX activity; also recorded: only P1 demonstrated the ability to reduce the total COX activity"},
      {"measurement": "total COX activity (in words)", "setting": "[2]; listed as peptide 1", "value": "best results in decreasing the cells’ total COX"}
    ]}
  ]
}
